Test results from patent US20230056335A1, “TOPICAL FORMULATION CONTAINING RAPAMYCIN” (NOBELPHARMA CO., LTD., priority 2020, published 2023).

Assays:
[1] = Solubility of sirolimus in each single solvent (visual observation); format: physicochemical; settings: sirolimus:solvent 1:50 (weight ratio)
Protocol: Sirolimus was mixed into each solvent shown in Table 1 so that sirolimus:solvent was a ratio of 1:50 (weight ratio), heating and ultrasonic irradiation were performed thereon in a water bath of about 50° C., and solubility was confirmed by visual observation.

[2] = Effects of mixing amount of BHT on stability of sirolimus, HPLC quantification; format: physicochemical; settings: BHT mixed at a concentration of 1% or higher; 40° C. and 50° C. for 2 weeks
Protocol: Quantification of sirolimus was performed by conducting an HPLC test under the following conditions and comparing the area of a sirolimus peak in a test substance and the area of a sirolimus peak in a sirolimus standard.
Detector: ultraviolet absorption photometer (detection wavelength: 278 nm)
Column: stainless steel tube with internal diameter of 4.6 mm and length of 250 mm filled with octadecylsilyl-silica gel for chromatography
Column temperature: constant temperature of about 40° C.
Mobile phase: acetonitrile/0.02 mol/L ammonium acetate buffer (pH 6.0)=13/7
Solutions were prepared by mixing various concentrations of BHT into the ethanol solution of sirolimus, and the solutions were stored at 40° C. and 50° C. for 2 weeks. Quantification of sirolimus was performed on samples after the storage by the same method as that in Reference Example 2 to calculate residual ratios.

EFT-400 kit skin model = assay: Penetration test for ointment into skin model; format: in vitro ADME
Protocol: Penetration of an ointment into a skin model was tested using the sirolimus ointment prepared in Example 4 as a test substance and an EFT-400 kit manufactured by MetTec Corporation as the skin model.
Skin model cells were transferred to a 6-well plate into which an EFT-400 assay medium was dispensed, and the cells were incubated overnight (for 16 to 18 hours) in a carbon dioxide incubator (37° C., 5% CO2, under a humidified condition).
About 50 mg of the test substance was applied onto the center of the cultured skin cells and evenly spread on the cells. These cells were incubated for 24 hours in a carbon dioxide incubator (37° C., 5% CO2, under a humidified condition). […]
Then, the sample solution was diluted 10-fold with the blank matrix, and 20 μL of the diluted sample solution was collected in a PP tube. 20 μL of acetonitrile, 20 μL of the internal standard solution, and 50 μL methanol were added to and mixed with the diluted sample solution, and the mixture was subjected to LC/MS/MS under the following conditions to quantify a sirolimus concentration in the measurement sample. The mass of sirolimus that transferred to the dermic layer was calculated from the obtained value of the sirolimus concentration and the mass of the dermic layer used in the preparation of the sample solution. […]

CO[C@H]1C[C@@H]2CC[C@@H](C)[C@@](O)(O2)C(=O)C(=O)N2CCCC[C@H]2C(=O)O[C@H]([C@H](C)C[C@@H]2CC[C@@H](O)[C@H](OC)C2)CC(=O)[C@H](C)/C=C(\C)[C@@H](O)[C@@H](OC)C(=O)[C@H](C)C[C@H](C)/C=C/C=C/C=C/1C [sirolimus]
Solubility in a single solvent ([1]; each solvent of Table 1): did not dissolve | Solubility ([1]; solvent 1,3 Butylene glycol, about 50° C.): Insoluble (cloudy liquid) | Solubility ([1]; solvent Diethyl sebacate, about 50° C.): Insoluble (cloudy liquid) | Solubility ([1]; solvent Diisopropyl sebacate, about 50° C.): Insoluble (cloudy liquid) | Solubility ([1]; solvent Ethylene glycol salicylate, about 50° C.): Insoluble (cloudy liquid) | Solubility ([1]; solvent Medium-chain fatty acid triglyceride, heating and ultrasonic irradiation about 50° C.): Insoluble (cloudy liquid) | Solubility ([1]; solvent Polyethylene glycol (Macrogol 400), about 50° C.): Insoluble (cloudy liquid) | Solubility ([1]; solvent Propylene glycol, about 50° C.): Insoluble (cloudy liquid) | Solubility ([1]; solvent Squalane, about 50° C.): Insoluble (cloudy liquid) | Solubility ([1]; solvent Triacetin, about 50° C.): Insoluble (cloudy liquid) | Stability of sirolimus [2]: stability of sirolimus was maintained | Rate of sirolimus transferred to the dermic layer (EFT-400 kit skin model; sirolimus ointment prepared in Example 4, about 50 mg applied, 24 hours incubation, LC/MS/MS): 1.402 % with respect to the indicated dose | Skin penetrating properties (EFT-400 kit skin model; sirolimus ointment prepared in Example 4, EFT-400 skin model): sufficiently maintained
